Measured values published in patent publication US20250026725A1, “HYDRATE CRYSTAL OF 5-CHLORO-4-(3-CHLORO-4- METHYLPHENYL)-1H-IMIDAZOLE-2-CARBONITRILE” (ISHIHARA SANGYO KAISHA, LTD., priority 2021, published 2025).
Converted amounts (≈) assume the structure as drawn. Like-named read-outs stand apart in the source and are kept apart here.

Tests used:
Type in all cases: cell-based
[1] = test system: Staphylococcus pseudintermedius (JCM 17571); experiment: Antimicrobial activity test, minimum bactericidal concentration (MBC100); details: JCM17571, S. pseudintermedius, 1 minute contact, then culture at 30° C. for 72 hours
Description: Staphylococcus pseudintermedius that had been cultured on a Luria Broth (LB) agar medium plate (peptone, yeast extract, sodium chloride, agar, from Invitrogen) for 24 hours was suspended in physiological saline to prepare so as to have an absorbance of 0.025 at 600 nm. The compound under test dissolved in DMSO was added thereto so as to have final concentrations of 200, 100, 50, and 25 ppm, and 1 minute later, 10 μL of suspension and 10 mL of physiological saline were added to a syringe and stirred. After that, the mixture was filtered by connecting to a 37 mm quality monitor (manufactured by Pall Corporation) and washed twice with 10 ml of physiological saline. As such, membrane filters were permeated with an LB medium, culturing was performed at 30° C. for 72 hours, the presence or absence of the development of colonies was examined to determine a minimum bactericidal concentration (MBC100). A minimum bactericidal concentration (MBC100) for Staphylococcus pseudintermedius (JCM 17571) was determined in the same method as in Test Example 6 except that the hydrate crystal (Production Example 2) was used as the compound under test.

[2] = test system: Microsporum canis (IFM63627); experiment: Antifungal activity test, minimum fungicidal concentration (MFC100) on spores by treatment time; details: read-out: Minimal fungicidal concentration (MFC100)
Description: Microsporum canis was cultured on a 1/10 Sabouraud medium at 32° C. for 168 hours to form spores. Then, 10 mL of physiological saline solution (OTSUKA NORMAL SALINE; containing the equivalent of 9 g of sodium chloride in 1000 mL) was directly added over the medium, and the surface was scraped with a disposable loop (Type 1 (1 μL) to collect a spore suspension containing mycelia. The spore suspension containing mycelia was filtered through a cell strainer ((40 μm). Spores were collected from a filtrate by centrifugation (3500 rpm, 5 minutes), and washed twice with physiological saline to prepare a spore suspension (1×10^7 cells/mL). 10 μL of the spore suspension was inoculated into 90 μL of physiological saline solution to which the compound under test dissolved in DMSO was added so as to have a predetermined concentration. Every time a predetermined time lapsed, 10 μL of a test solution containing spores was taken out. Spores were collected from the test solution thus taken out by centrifugation (3500 rpm, 5 minutes), and washed twice with physiological saline to prepare 10 μL of spore suspension. […]
A minimum fungicidal concentration (MFC100) for Microsporum canis (IMF63627) was determined in the same method as in Test Example 8 except that the hydrate crystal (Production Example 2) was used as the compound under test.

[3] = test system: Malassezia furfur (IFM 55951); experiment: Antifungal activity test, minimum fungicidal concentration (MFC100); details: 1 minute contact, culture 32° C. for 72 hours, read-out: Minimal fungicidal concentration (MFC100)
Description: (§1) Fungi of Malassezia (Malassezia furfur, Malassezia sympodialis, and Malassezia globosa) that had been cultured on a CHROMagar (trademark) Malassezia/Candida raw medium (peptone, specialized enzyme-substrate mixture, chloramphenicol, olive oil, agar, manufactured by KANTO CHEMICAL CO., INC.) for 5 to 7 days was suspended in physiological saline to prepare so as to have an absorbance of 0.025 at 600 nm. The compound under test dissolved in DMSO was added thereto so as to have final concentrations of 200, 100, 50, and 25 ppm. 1 minute later, 10 μL of suspension and 10 mL of physiological saline were added to a syringe and stirred, and then the mixture was filtered by connecting to a 37 mm quality monitor (manufactured by Pall Corporation) and washed twice with 10 ml of physiological saline. The membrane filters were removed from the quality monitor, and placed and cultured on the CHROMagar (trademark) Malassezia/Candida raw medium at 32° C. for 72 hours, and the presence or absence of the development of colonies was examined to determine a minimum fungicidal concentration (MFC100). Minimum fungicidal concentrations (MFC100) for Malassezia furfur (IFM 55951), Malassezia sympodialis (IFM 48588), and Malassezia globosa (IFM 51946) were determined in the same method as in Test Example 10 except that the hydrate crystal (Production Example 2) was used as the compound under test.

[4] = test system: Malassezia globosa (IFM 51946); experiment: as above; details: 1 minute contact, culture 32° C. for 72 hours, read-out: Minimal fungicidal concentration (MFC100)
Description: as §1

[5] = test system: Malassezia sympodialis (IFM 48588); experiment: as above; details: 1 minute contact, culture 32° C. for 72 hours, read-out: Minimal fungicidal concentration (MFC100)
Description: as §1

[6] = test system: Malassezia restricta (IFM55992); experiment: as above; details: 1 minute contact, MLNA medium 32° C. for 72 hours, read-out: Minimal fungicidal concentration (MFC100)
Description: A fungus of Malassezia (Malassezia restricta) that had been cultured on a CHROMagar (trademark) Malassezia/Candida raw medium (peptone, specialized enzyme-substrate mixture, chloramphenicol, olive oil, agar, manufactured by KANTO CHEMICAL CO., INC.) for 5 to 7 days was suspended in physiological saline to prepare so as to have an absorbance of 0.025 at 600 nm. The compound under test dissolved in DMSO was added thereto so as to have final concentrations of 200, 100, 50, and 25 ppm. 1 minute later, 10 μL of suspension and 10 mL of physiological saline were added to a syringe and stirred, and then the mixture was filtered by connecting to a 37 mm quality monitor (manufactured by Pall Corporation) and washed twice with 10 ml of physiological saline. The membrane filters were removed from the quality monitor, and placed and cultured on a Leeming & Notman agar Modified medium (MLNA medium) (peptone, glucose, yeast extract, dried bovine bile, glycerol, glycerin stearate, Tween 60, olive oil, agar) at 32° C. for 72 hours, and the presence or absence of the development of colonies was examined to determine a minimum fungicidal concentration MFC100). A minimum fungicidal concentration (MFC100) for Malassezia restricta (IFM55992) was determined in the same method as in Test Example 11 except that the hydrate crystal (Production Example 2) was used as the compound under test.

SMILES: Cc1ccc(-c2nc(C#N)[nH]c2Cl)cc1Cl [Anhydrous crystal, 5-chloro-4-(3-chloro-4-methylphenyl)-1H-imidazole-2-carbonitrile]
- MBC [1]: 50 µg/mL (≈ 198 µM)
- MFC ([2]; treatment time 24 hours): 50 µg/mL (≈ 198 µM)
- MFC ([2]; treatment time 96 hours): 10 µg/mL (≈ 39.7 µM)
- MFC [3]: 50 µg/mL (≈ 198 µM)
- MFC [4]: 50 µg/mL (≈ 198 µM)
- MFC [5]: 50 µg/mL (≈ 198 µM)
- MFC [6]: 200 µg/mL (≈ 793 µM)
